Assay results as given in a melting point compilation (Tetko et al.; mined from patent text by program, amines drawn as free bases though some values may be those of a salt).

Structure (SMILES) | melting point [°C]
COC(=O)c1cc(COc2c(OC)c3cocc(OC)c-3c2C(C)=O)ccc1COc1c(OC)c2cocc(OC)c-2c1C(C)=O | 87 to 89
CC(C)Oc1cc(NC(=O)CC(CCCl)C(F)(F)F)c(F)cc1Cl (centres undefined) | 57 to 63
CCCNCC(O)COc1ccccc1CCCc1cccc2c1CC(=O)N2 (centres undefined) | 122
COC(=O)c1ccccc1Sc1cc(C=O)ccc1OC | 99 to 104
COc1cc(N2CCCCC2)ccc1C(=O)c1ccccc1C(=O)O | 199 to 201
CN1C(=O)CC[C@]2(C)c3ccc(-c4cnc5ccccc5n4)cc3CC[C@@H]12 | 129 to 135
O=c1[nH]c2ccc(I)cc2c(=O)n1-c1ccc(Cl)cc1 | 324 to 326
COc1cc(Br)ccc1-c1ccc(Br)cc1N | 94.5 to 97
CCCCOc1ccc(OCc2ccccc2)c(C(=O)O)c1 | 79 to 82
CCCCNC(=O)CN1C(=O)C(NC(=O)OCc2ccccc2)N=C(c2ccccc2)c2ccccc21 (centres undefined) | 127 to 129
O=Cc1cccn1-c1ccccc1[N+](=O)[O-] | 119 to 122
O=C(Nc1nc(CN2CCC(c3c[nH]c4ccccc34)CC2)cs1)C(F)(F)F | 244 to 247
O=C(CN1C(=O)c2ccccc2C1=O)N1CCN(C(=O)c2cc(C(F)(F)F)cc(C(F)(F)F)c2)[C@H](Cc2c[nH]c3ccccc23)C1 | > 220
COC(=O)C1(N(O)C(=O)Cc2c(C)cc(Cl)cc2C)CCN(OC)CC1 | 228 to 231
O=C(Nc1nnc(SCC(=O)C23CC4CC(CC(C4)C2)C3)s1)C1CC1 | 218 to 219
COc1cc(-c2nc(NC3CCCC3)c3c(C)c(C#N)sc3n2)cc(OC)c1OC | 218 to 220
CCN(CC)c1ccc2c(c1)O/C(=C1/Oc3cc(N(CC)CC)ccc3C1=O)C2=O | 292
CC(C)c1ccc(N2CC(=O)N(c3cccc(C(=O)O)c3)C2=O)cc1 | 224 to 226
CCOC(=O)c1cnn(-c2ccc(Oc3ccc(C)cc3O)cc2)c1N | 142 to 144
NC(=O)CCCCCCCOc1nc(-c2ccccc2)c(-c2ccccc2)n1-c1ccccc1 | 152 to 154

Structure (SMILES) | melting point [°C]
CC(C)c1nn(-c2ccc(C(F)(F)F)cn2)cc1CCCOc1cccc(OC(C)(C)C(=O)O)c1 | 101 to 102
O=C(c1ccccc1)c1ccc(-c2ccc(CBr)cc2)cc1 | 110 to 112
COc1ccc(CNc2cc(F)cc(C#N)c2)cc1 | 93 to 94
COCCOCCOc1ccc2c(c1)S(=O)(=O)N(Cc1ccccc1)C2=O | 86 to 88
CS(=O)(=O)c1cccnc1CC1C(=O)C2(COc3cc4c(cc32)OCCO4)c2ccccc21 (centres undefined) | > 250
CC1CCCN1c1ccc(C#N)c2occc12 (centres undefined) | 82 to 83
COc1cccc(-c2nc(C)nn2-c2ccc(S(N)(=O)=O)cc2)c1 | 211 to 212
O=C1/C(=C/c2cccs2)CNc2cc(OCCn3ccnc3)ccc21 | 211 to 213
O=C1NC(=O)C(S(=O)(=O)c2ccccc2)S1 (centres undefined) | 130 to 133
COC1CCC2(C)C(=CC(=O)C3C2CCC2(C)C(OC(C)=O)CCC32)C1 (centres undefined) | 168 to 170
Clc1ccc(Nc2nnc(Cc3ccncc3)c3cccnc23)cc1 | 196 to 197
COC(=O)c1ncn2c1CN(C)C(=O)c1cc(F)ccc1-2 | 195 to 196
COC[C@H]1CN(c2coc3cc(C(=O)OC)ccc23)C(=O)O1 | 116
CCOc1cc2c(cc1OC)C(c1cnc(OC)nc1)=N[C@@H]1CC[C@@H](O)C[C@H]21 | 124
CC1SC(=S)N(C)N=C1c1ncc(Cl)cc1F (centres undefined) | 107 to 112
Cn1c2c(c3cc(F)ccc31)C(=O)CCC2 | 158
O=C1OC2(CCC(N3CCN(c4ccc(F)cc4)CC3)CC2)c2cc(F)ccc21 (centres undefined) | > 250
COc1cc(N(CC(C)C)CC(C)C)ccc1CN1C(=O)C(C)(c2ccccc2Cl)c2cc(Cl)ccc21 (centres undefined) | 153
CCOC(=O)C1=C(C)N2CCNC2=C(C(=O)OCC)C1c1cccs1 (centres undefined) | 134
ClC1c2ccccc2C=Cc2ccc(Br)cc21 (centres undefined) | 146

Structure (SMILES) | melting point [°C]
CCNC(=O)c1cc(C)c(C(c2cc(F)ccc2F)S(=O)(=O)c2ccc(F)cc2)cn1 (centres undefined) | 191 to 193
CCOC(=O)c1c(-c2ccc(F)cc2)oc(-c2ccc(F)cc2)cc1=O | 113 to 114
CS/C(=N\O)C(F)(F)F | 52 to 54
CON=C(Cn1nnnc1S)C(=O)O | 84 to 86
CCCOC(=O)Cc1cc(O)c(C)cc1O | 101
O=C(N[C@H](Cc1cccc(OC(F)(F)C(F)F)c1)[C@@H](O)c1csc(-c2ccccc2)n1)c1ccc(F)c2ccccc12 (racemic) | 148 to 150
Nc1ccc(-c2nc3n(c2-c2ccc(N)cc2)CCS3)cc1 | 205 to 206
C[Si](C)(C)c1cc(Cl)sc1C(=O)NCCOS(C)(=O)=O | 82 to 86
CSc1nn2c(N)cc(C)nc2c1S(=O)(=O)c1cccnc1 | 227 to 228
Cc1oc(-c2ccccc2)nc1COc1ccc(COc2ccc(C(=O)c3ccccc3)c(O)c2)cc1 | 160 to 161
Oc1ccc(OCC(O)CNCCNc2cccc3[nH]ncc23)cc1 (centres undefined) | 151 to 153
CC(C)C[C@H](NC(=O)OCc1ccccc1)C(=O)N[C@@H](Cc1ccccc1)C(=O)CSCc1ccccc1 | 86 to 87
Cc1cc(Br)c(S(N)(=O)=O)cc1C(=O)O | 237
Cc1n[nH]c(=O)n(Cc2ccccc2)c1=O | 143 to 146
CCN(CC)CCNC(=O)c1cnc2ccc(I)cc2c1F | 88 to 90
O=C1COC(=O)C1=Cc1cccc(C(F)(F)F)c1 | 108 to 109
CCOC(=O)C(NC(C)=O)C(O)c1ccc(C=Cc2csc3ccccc23)s1 (centres undefined) | 157 to 159
C#CC1(O)CCN(CC=C(c2ccccc2)c2ccccc2)CC1 | 122 to 123

Next, values leading:

melting point [°C] | Structure (SMILES)
165 to 167 | CCCc1ccc2c(c1CCC(=O)O)CCC(NS(=O)(=O)c1ccc(Cl)cc1)C2 (centres undefined)
199 to 203 | CC(CCO)NC1=NS(=O)(=O)c2sc(Cl)cc2N1 (centres undefined)
131 to 133 | COc1cc(Oc2cccc(C(F)(F)F)c2)nc(C(=O)Nc2ccccc2)c1
113 | CCCCCCC(=O)OCCOC(=O)NC1(C(=O)O)CC1
134 to 135 | CCCCCCNc1cc(-c2nc(=O)c3ccccc3s2)ccn1
151 to 152 | C/C(=C(\C#N)C(=S)/N=C/N(C)C)N1CCC(c2ccccc2)CC1
144 to 146 | O=[N+]([O-])c1ccc(S(=O)(=O)c2ncc(Cl)cn2)s1
194 to 195 | CC(C)(O)C1CCN(Cc2ccc(C#CC(=O)Nc3ccc(-c4ccc(Cl)cc4)cc3)cc2)CC1
> 260 | COc1cc2c(cc1OC)-c1[nH]c3ccc(O)cc3c1C2=O
108 to 109 | CC1(C)C(=O)N(c2ccc(N)c(C(F)(F)F)c2)C(=O)N1CCCCCN1C(=O)N(c2ccc(N)c(C(F)(F)F)c2)C(=O)C1(C)C
196 to 198 | O=C(Nc1ccc(C(F)(F)F)cc1)NC1CCS(=O)(=O)CC1
114 to 116 | CCc1nc(NC(=O)NS(=O)(=O)c2ccccc2OC(F)F)nc(OC)n1
182 to 185 | CCOCC(=O)Nc1c(NCC(C)C)cc(C)n2nnnc12
218 to 219 | COc1cc2c(Nc3ccc4cn[nH]c4c3)c(C#N)cnc2cc1OCCN(C)C
131 | Cc1cn2nc(Cl)ccc2n1
114 to 120 | COC(=O)COc1cc(C)nc(NC(=O)NS(=O)(=O)c2cccs2)n1
283 to 285 | Cc1ccc2cccc(OCc3cccc(NC(=O)CN4C(=O)c5ccccc5C4=O)c3C)c2n1
182 to 184 | CCCCOC(=O)[C@H]1CN(c2ccc3c(c2)oc(=O)n3C)C(=O)O1
101 to 102 | C(=C\c1cn(-c2ccccc2)nc1OCc1ccccc1)/c1cscn1
278 to 285 | Oc1c(CCc2ccccc2)cnc2c(-c3cc(-c4ccccc4)cs3)cnn12
150 | Fc1ccc(Cn2c(NC3CCN(CCOc4ccc5ccccc5n4)CC3)nc3ccccc32)cc1

melting point [°C] | Structure (SMILES)
89.2 to 90.2 | CCOCC(C)Oc1ccc(CSc2cnn(C(C)(C)C)c(=O)c2Cl)cc1 (centres undefined)
90 to 93 | O=C(NCC1CCCCC1)c1c(Cl)ccc2nc(CCCCc3nnn[nH]3)ccc12
74.9 | COC(=O)C=C1CN2C(=O)N(c3cc(Cl)cc(Cl)c3)C(=O)C2(Cc2ccc(Br)cc2)C1 (centres undefined)
179 to 181 | O=C(NO)c1ccc(C(=O)NOCCCc2ccccc2)cc1
95.1 | COc1c(Cl)cc(N2C(=O)N3CCCC3(Cc3ccc(C#N)cc3)C2=O)cc1Cl (centres undefined)
209 | CC(C)(N)c1ccc(-c2nc(Nc3cccc(F)c3)ncc2C#N)cc1
134 to 135 | COc1ccc(Cl)nc1N
159 to 160 | CCOC(=O)C(=COS(=O)(=O)c1ccc(C)cc1)c1ccccc1
222 to 231 | CCOc1ccc(CCNC(=O)c2cnc3ccccc3c2)cc1S(N)(=O)=O
173 | CN(C)C=Nc1snc(C#N)c1C#N
212 to 214 | O=C1NCCc2c(-c3cccc(C(F)(F)F)c3)[nH]c3cccc1c23
89 to 90 | CC(=O)c1sc(-c2ccc(C(F)(F)F)cc2)nc1C
112 to 115 | CCOC(=O)C1(C(=O)N(Cc2ccccc2)Cc2ccccc2)CC(=O)N(Cc2ccccc2)C1 (centres undefined)
160 | COc1cc(C(=O)O)c(-c2cc3cc(O)ccc3[nH]2)cc1OC
100 to 101 | COc1cc2ccccc2c(Br)c1O
191 to 194 | O=C1C2CC3CC2C(C(=O)O)(C3)N1Cc1ccccc1 (centres undefined)
170 to 174 | O=C(Nc1cccc(C(F)(F)F)c1)Nc1ccc(Oc2ncnc3ccn(CCOCCO)c23)cc1Cl
139 to 140 | COC(=O)c1cc(CCC(=O)NCc2ccccc2)ccc1O
140 to 142 | CC(C)(C)OC(=O)N1CCC(N(Cc2ccccc2)S(N)(=O)=O)CC1
173 | CCC(=O)NS(=O)(=O)c1cccc(-c2cccc(-c3cc(-c4ccc(C(F)(F)F)cc4)cc(C)n3)n2)c1
